Assay [1] addresses T1, CAT1 (cationic amino acid transporter 1, CAT1/SLC7A1) (Homo sapiens, UniProt P30825).
T1 construct: full-length human transporter stably transfected in HEK cells (HEK-CAT1); net uptake against HEK-VC vector control cells
Nature of the assay: cell-based. The arrangement: species or system HEK-CAT1 (HEK293 stably transfected); Inhibition of net CAT1-mediated [3H]-ADMA (1 uM) uptake, 2.5 min, scintillation counting, vector control subtracted. Conditions: HEK293, ADMA 1 uM as substrate; for inhibition at 20 µM: read-out: % Inhibition of ADMA uptake at 20 µM; for inhibition at 200 µM: read-out: % Inhibition of ADMA uptake at 200 µM. The essentials:
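HEK cells expressing CAT1 and vector-control cells took up [^3H]-L-arginine for 5 min, or [^3H]-L-homoarginine or [^3H]-ADMA (1 μM) for 2.5 min, with or without drug at 20 or 200 µM. Net CAT1 uptake was CAT1 cells minus control cells, and inhibition (%) = 100 − V/V0×100. Negative values mean stimulation; n = 6–9.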

Assay [2] concerns the target T1, CAT1 (cationic amino acid transporter 1, CAT1/SLC7A1). Nature of the assay: inhibition of [3H]-L-arginine uptake in HEK-CAT1 cells. Format: cell-based. The source says:
inhibition of [3H]-L-arginine uptake in HEK-CAT1 cells on CAT1 (cationic amino acid transporter 1, CAT1/SLC7A1) | verapamil inhibited CAT1-mediated uptake of L-arginine, L-homoarginine, and ADMA with IC50 values

Assay [3] has the same target. Nature of the assay: cell-based. Further details: species or system HEK-CAT1 (HEK293 stably transfected); Inhibition of net CAT1-mediated [3H]-L-arginine (100 uM) uptake, 5 min, scintillation counting, vector control subtracted. As to conditions: HEK293, L-arginine 100 uM as substrate; for inhibition at 20 µM: read-out: % Inhibition of L-arginine uptake at 20 µM; for inhibition at 200 µM: read-out: % Inhibition of L-arginine uptake at 200 µM. The essentials:
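HEK-CAT1 and vector-control HEK-VC cells took up [3H]-L-arginine (100 μM) for 5 min, with or without drug at 20 or 200 µM; [3H]-L-homoarginine or [3H]-ADMA uptake ran 2.5 min. Net uptake is CAT1 minus VC cells, and inhibition (%) = 100 − (V/V0 × 100). Negative values mean stimulated uptake.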

Assay [4] has the same target. Nature of the assay: inhibition of [3H]-L-arginine uptake in HEK-CAT1 cells, Lineweaver-Burk. The assay is classed as cell-based. Conditions: substrate L-arginine; competitive.
For assay [5] the target is unchanged. As to the kind of experiment: inhibition of [3H]-L-homoarginine uptake in HEK-CAT1 cells. Format: cell-based. Conditions: read-out: % inhibition at 20 μM.
Assay [6] shares this target. As to the kind of experiment: cell-based. The arrangement: species or system HEK-CAT1 (HEK293 stably transfected); Inhibition of net CAT1-mediated [3H]-L-homoarginine (1 uM) uptake, 2.5 min, scintillation counting, vector control subtracted. Conditions: HEK293, L-homoarginine 1 uM as substrate; for inhibition at 20 µM: read-out: % Inhibition of L-homoarginine uptake at 20 µM; for inhibition at 200 µM: read-out: % Inhibition of L-homoarginine uptake at 200 µM. The essentials: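 HEK-CAT1 cells with HEK-VC vector controls; [3H]-L-homoarginine (1 μM) uptake over 2.5 min with or without test compound at 20 µM or 200 µM. Net CAT1 uptake (CAT1 minus VC) gives inhibition (%) = 100 – (V/V0 × 100). Negative values mean stimulated uptake; n = 6–9 from at least two independent experiments.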

Read-outs that look alike come from different tables or passages of the source.

T1 sequence (P30825 whole entry): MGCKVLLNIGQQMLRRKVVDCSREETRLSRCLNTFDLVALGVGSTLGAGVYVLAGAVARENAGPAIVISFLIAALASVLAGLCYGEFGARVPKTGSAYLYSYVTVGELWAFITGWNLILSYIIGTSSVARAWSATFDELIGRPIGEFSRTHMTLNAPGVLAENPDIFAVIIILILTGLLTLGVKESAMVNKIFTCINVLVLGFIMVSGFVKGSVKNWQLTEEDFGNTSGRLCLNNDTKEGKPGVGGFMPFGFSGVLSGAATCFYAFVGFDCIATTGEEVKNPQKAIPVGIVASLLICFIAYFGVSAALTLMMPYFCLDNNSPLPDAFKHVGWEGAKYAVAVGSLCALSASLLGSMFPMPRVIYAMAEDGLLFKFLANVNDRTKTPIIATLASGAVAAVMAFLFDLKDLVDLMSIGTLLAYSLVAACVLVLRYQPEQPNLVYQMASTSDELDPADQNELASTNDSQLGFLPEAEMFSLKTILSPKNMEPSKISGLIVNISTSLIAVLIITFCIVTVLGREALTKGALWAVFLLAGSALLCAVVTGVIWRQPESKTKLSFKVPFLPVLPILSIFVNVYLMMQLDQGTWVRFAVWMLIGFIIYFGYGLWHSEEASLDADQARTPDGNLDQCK

Consider `COc1ccc(CCN(C)CCCC(C#N)(c2ccc(OC)c(OC)c2)C(C)C)cc1OC` (centres unmarked) [verapamil], for which the inhibition at 20 µM in assay [1] is 24.1 ± 2.3%; in assay [3] it was 29.3 ± 1.1%. For the same compound, the figures for the inhibition at 200 µM in assay [1] and in assay [3] were 44.2 ± 4.4% and 27.5 ± 3.7%, respectively. The same compound came in with an IC50 in assay [2] of 85.3 µM.

Take `N=C(N)NCCCC[C@H](N)C(=O)O` [L-homoarginine]: the “inhibition of [3H]-L-arginine uptake in HEK-CAT1 cells, Lineweaver-Burk” value in assay [4] is “competitive inhibition pattern for L-homoarginine and ADMA”.

For `O=C(OC1C[C@H]2CC[C@@H](C1)[N+]21CCCC1)C(O)(c1ccccc1)c1ccccc1` (some centres unmarked) [trospium], in assay [5], the inhibition at 20 µM was determined as 28.6%.

`CN(C)C(=N)NCCC[C@H](N)C(=O)O` [ADMA]: the “inhibition of [3H]-L-arginine uptake in HEK-CAT1 cells, Lineweaver-Burk” value in assay [4] is “competitive inhibition pattern for L-homoarginine and ADMA”.

For the compound `CN(C)CCCN1c2ccccc2CCc2ccccc21` [Imipramine], the inhibition at 20 µM is -4.3 ± 2.1% in assay [1], -3.1 ± 1.6% in assay [6] and 0.08 ± 4.8% in assay [3]. Besides, the inhibition at 200 µM in assay [1] stood at 14.1 ± 4.1%; in assay [6] it was 15 ± 2.1%; in assay [3], 22.6 ± 5.7%.

As to `COc1ccc(OC)c(C(O)C(C)N)c1` (centres unmarked) [Methoxamine], the results for the inhibition at 20 µM in assay [1], in assay [6] and in assay [3] were 0.7 ± 11.9%, 0.7 ± 11.9% and 24.5 ± 10.5%, respectively. Moreover, the inhibition at 200 µM in assay [1] is 1.8 ± 0.9%; in assay [6], -23.9 ± 2.1%; in assay [3], -23.9 ± 3.7%.

For `CNCCCN1c2ccccc2CCc2ccccc21` [Desipramine], the inhibition at 20 µM was -0.7 ± 3.1% in assay [1], -10.3 ± 2.1% in assay [6] and -10.8 ± 2.3% in assay [3]. For the same compound, the inhibition at 200 µM in assay [1] was -37.6 ± 11.8%; in assay [6] it was 11.6 ± 7.2%; in assay [3] it was 8.3 ± 6.7%.

Consider `CNCC[C@H](Oc1cccc2ccccc12)c1cccs1` [Duloxetine], for which the inhibition at 20 µM in assay [1] was 1.9 ± 5.4%; in assay [6], 7.6 ± 6.5%; in assay [3], 6.1 ± 7.4%. Besides, the inhibition at 200 µM in assay [1] was -14.2 ± 4.9%; in assay [6] it was 11.9 ± 3.1%; in assay [3] it was 12.6 ± 2.6%.

As to `CN/C(=N\CCSCc1nc[nH]c1C)NC#N` [Cimetidine], the inhibition at 20 µM came out at 21.9 ± 3.1% in assay [1], 21.9 ± 3% in assay [6] and 0.2 ± 7.2% in assay [3]. Besides, the inhibition at 200 µM is 1.1 ± 2.5% in assay [1], -31.2 ± 1.3% in assay [6] and -65.4 ± 5.8% in assay [3].

For `O=C(O)CCCc1ccc(N(CCCl)CCCl)cc1` [Chlorambucil], the inhibition at 20 µM in assay [1] is -5.1 ± 2.8%; in assay [6] it was -18.6 ± 1.4%; in assay [3], -23.3 ± 3.8%. The inhibition at 200 µM in assay [1] is 13.9 ± 4.4%; in assay [6], -41.6 ± 6.4%; in assay [3], -43.3 ± 6.5%.

As to `CCCc1nc(C(C)(C)O)c(C(=O)O)n1Cc1ccc(-c2ccccc2-c2nnn[nH]2)cc1` [Olmesartan], the inhibition at 20 µM in assay [1] was -13.2 ± 1.9%; in assay [6] it was 3 ± 2.3%; in assay [3] it was 2.8 ± 2.3%. Besides, the inhibition at 200 µM is -7.7 ± 3.5% in assay [1], -13.7 ± 5.1% in assay [6] and -32.8 ± 1.4% in assay [3].

Regarding `CCOC(=O)[C@H](CCc1ccccc1)N[C@@H](C)C(=O)N1CCC[C@H]1C(=O)O` [Enalapril], the inhibition at 20 µM stood at 27.2 ± 2.1% in assay [1], 12.7 ± 4.6% in assay [6] and 9.9 ± 8.3% in assay [3]. Further, the inhibition at 200 µM in assay [1] was 5.3 ± 1.8%; in assay [6], -9.5 ± 1.2%; in assay [3], -1.5 ± 1.6%.

For the compound `CC1(C)S[C@@H]2[C@H](NC(=O)[C@H](N)c3ccc(O)cc3)C(=O)N2[C@H]1C(=O)O` [Amoxicillin], the inhibition at 20 µM in assay [1] was 2.7 ± 5.9%; in assay [6] it was 13.3 ± 1%; in assay [3], 14.9 ± 2%. The results for the inhibition at 200 µM in assay [1], in assay [6] and in assay [3] were 10.2 ± 3.2%, 8.8 ± 1.1% and 5.9 ± 2.9%, respectively.

As for `CCc1nc(N)nc(N)c1-c1ccc(Cl)cc1` [Pyrimethamine], the inhibition at 20 µM was -37.1 ± 7.2% in assay [1], -25.8 ± 15.5% in assay [6] and 6.9 ± 9.6% in assay [3]. The inhibition at 200 µM in assay [1] was determined as 23.4 ± 0.3%; in assay [6], 31.6 ± 2.7%; in assay [3], 31.2 ± 2.3%.

For `COc1cc2nc(N3CCN(C(=O)c4ccco4)CC3)nc(N)c2cc1OC` [prazosin], the inhibition at 20 µM came to 38.2% in assay [5], 36.9 ± 4.1% in assay [1] and 9.8 ± 4.3% in assay [3]. Further, the inhibition at 200 µM in assay [1] was 5.1 ± 2.3%; in assay [6] it was 9.7 ± 6.1%; in assay [3], 9.9 ± 3.1%.

Regarding `CCCCc1nc(Cl)c(CO)n1Cc1ccc(-c2ccccc2-c2nnn[nH]2)cc1` [Losartan], the results for the inhibition at 20 µM in assay [1], in assay [6] and in assay [3] were 7 ± 3.8%, 11 ± 0.5% and 13.5 ± 1.7%, respectively. Also, the figures for the inhibition at 200 µM in assay [1], in assay [6] and in assay [3] were 12.9 ± 4.1%, -27.1 ± 2% and -34.8 ± 1.4%, respectively.

`CN(C)CCC=C1c2ccccc2CCc2ccccc21` [Amitriptyline]: the inhibition at 20 µM in assay [1] came out at 5.6 ± 2.9%; in assay [6], 0.6 ± 1.7%; in assay [3], 35.9 ± 3.6%. For the same compound, the inhibition at 200 µM was -13.4 ± 3% in assay [1], 29.7 ± 3.2% in assay [6] and 26.9 ± 4.7% in assay [3].

As for `C[C@H]1O[C@@H](O[C@H]2[C@@H](O)C[C@H](O[C@H]3[C@@H](O)C[C@H](O[C@H]4CC[C@@]5(C)[C@H](CC[C@@H]6[C@@H]5C[C@@H](O)[C@]5(C)[C@@H](C7=CC(=O)OC7)CC[C@]65O)C4)O[C@@H]3C)O[C@@H]2C)C[C@H](O)[C@@H]1O` [Digoxin], the figures for the inhibition at 20 µM in assay [1], in assay [6] and in assay [3] were -7.4 ± 5.9%, -4.8 ± 6.8% and -4.3 ± 7.3%, respectively. The inhibition at 200 µM in assay [1] is 14.4 ± 4.6%; in assay [6], -12.7 ± 0.8%; in assay [3] it was -14.9 ± 17.8%.

What is called inhibition is the drop in the measured response relative to a control, in per cent. One may read the IC50 as the concentration that inhibits the measured activity by half. A lower IC50 goes with inhibition by little substance.
